This passage reports AC50, IC50 and EC50 results from ChEMBL document CHEMBL1201862, “PubChem BioAssay data set” (2004).

Active and inactive are the calls of the source. Where only a bound is given, the exact number is not on record here.

Assay [1] has as its target Voltage-gated inwardly rectifying potassium channel KCNH2 (Homo sapiens, UniProt Q12809). Particulars: Potency.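 Further: confirmatory quantitative high-throughput screen measuring inhibition of hERG channel activity.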
Assay [2] concerns the target DNA dC->dU-editing enzyme APOBEC-3A (Homo sapiens, UniProt P31941). Briefly: Dose Response confirmation of small molecule APOBEC3A DNA Deaminase Inhibitors via a fluorescence-based single-stranded DNA deaminase assay. [Related pubchem assays (depositor defined):AID493011, AID493024]. The class given is functional.
For assay [3], the target named is T1, Polyadenylate-binding protein 1 (Homo sapiens, UniProt P11940). As to the kind of experiment: blockers of PABP interaction with poly(A) – biochemical, fluorescence polarization, […] (AID 2014). In general terms: In fluorescence polarisation assays a small probe gives low polarisation when free and higher when bound to something large.
T1 sequence (P11940 whole entry): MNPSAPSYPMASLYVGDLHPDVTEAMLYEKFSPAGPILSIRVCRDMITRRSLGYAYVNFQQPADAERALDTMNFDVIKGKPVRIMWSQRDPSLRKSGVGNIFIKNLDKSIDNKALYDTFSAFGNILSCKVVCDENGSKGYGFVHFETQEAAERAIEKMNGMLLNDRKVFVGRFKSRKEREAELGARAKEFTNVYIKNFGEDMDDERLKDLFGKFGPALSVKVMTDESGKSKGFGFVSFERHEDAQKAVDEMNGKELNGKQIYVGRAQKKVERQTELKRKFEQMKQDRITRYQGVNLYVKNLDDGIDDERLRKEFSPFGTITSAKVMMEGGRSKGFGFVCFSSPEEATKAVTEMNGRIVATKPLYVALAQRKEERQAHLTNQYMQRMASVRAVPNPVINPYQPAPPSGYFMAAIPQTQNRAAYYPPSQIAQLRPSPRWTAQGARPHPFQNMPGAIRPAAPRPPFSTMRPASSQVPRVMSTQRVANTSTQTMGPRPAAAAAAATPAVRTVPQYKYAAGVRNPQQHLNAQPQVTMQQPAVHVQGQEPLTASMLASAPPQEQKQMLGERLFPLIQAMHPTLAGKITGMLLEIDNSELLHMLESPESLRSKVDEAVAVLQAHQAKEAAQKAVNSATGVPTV
The target of assay [4] is T2, Eukaryotic translation initiation factor 4H (Homo sapiens, UniProt Q15056). As to the kind of experiment: eIF4H binding inhibition – biochemical, uHTS, fluorescence polarization, translation initiation inhibitor project, primary screen (AID 2012).
Assay [5] has as its target T1, Polyadenylate-binding protein 1. As to the kind of experiment: PABP inhibition in translation initiation, SAR follow-up (AID 435018). Type of assay: functional.
Assay [6] addresses DNA dC->dU-editing enzyme APOBEC-3G (Homo sapiens, UniProt Q9HC16). The class given is functional.
Assay [7] concerns the target T2, Eukaryotic translation initiation factor 4H. Briefly: inhibitors of translation initiation factor eIF4H – SAR follow-up (AID 435011). Type of assay: functional.
A further assay deals with HeLa. Briefly: ATP-based viability loss in HeLa cells – cell-based, CellTiter-Glo luminescence, cherry-pick samples, cytotoxicity control for MITF activator project, dose response (AID 540259). The conditions noted are these: Homo sapiens. The class given is functional.
For assay [8], the target named is T3, Type-1 angiotensin II receptor (Homo sapiens, UniProt P30556).
T3 sequence (P30556 whole entry): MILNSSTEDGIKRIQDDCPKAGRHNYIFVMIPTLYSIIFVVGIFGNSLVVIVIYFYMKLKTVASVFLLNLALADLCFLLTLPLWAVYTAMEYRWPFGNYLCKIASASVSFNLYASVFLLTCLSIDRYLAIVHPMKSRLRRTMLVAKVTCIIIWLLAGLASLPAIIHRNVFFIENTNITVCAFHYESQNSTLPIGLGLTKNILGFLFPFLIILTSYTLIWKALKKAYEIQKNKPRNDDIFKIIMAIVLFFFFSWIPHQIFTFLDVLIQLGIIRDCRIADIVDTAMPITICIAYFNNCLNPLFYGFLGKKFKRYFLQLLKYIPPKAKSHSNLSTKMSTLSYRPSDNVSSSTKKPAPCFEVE
As to the kind of experiment: agonist activity at AGTR1 – cell-based, uHTS hits, selectivity assay for APJ receptor agonist project, dose response (AID 488865).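 Further: beta-arrestin recruitment to AT1 measured by enzyme fragment complementation luminescence.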 Type of assay: functional.

Assay [9] deals with T4, Short transient receptor potential channel 4 (Mus musculus, UniProt Q9QUQ5).
T4 sequence (Q9QUQ5 whole entry): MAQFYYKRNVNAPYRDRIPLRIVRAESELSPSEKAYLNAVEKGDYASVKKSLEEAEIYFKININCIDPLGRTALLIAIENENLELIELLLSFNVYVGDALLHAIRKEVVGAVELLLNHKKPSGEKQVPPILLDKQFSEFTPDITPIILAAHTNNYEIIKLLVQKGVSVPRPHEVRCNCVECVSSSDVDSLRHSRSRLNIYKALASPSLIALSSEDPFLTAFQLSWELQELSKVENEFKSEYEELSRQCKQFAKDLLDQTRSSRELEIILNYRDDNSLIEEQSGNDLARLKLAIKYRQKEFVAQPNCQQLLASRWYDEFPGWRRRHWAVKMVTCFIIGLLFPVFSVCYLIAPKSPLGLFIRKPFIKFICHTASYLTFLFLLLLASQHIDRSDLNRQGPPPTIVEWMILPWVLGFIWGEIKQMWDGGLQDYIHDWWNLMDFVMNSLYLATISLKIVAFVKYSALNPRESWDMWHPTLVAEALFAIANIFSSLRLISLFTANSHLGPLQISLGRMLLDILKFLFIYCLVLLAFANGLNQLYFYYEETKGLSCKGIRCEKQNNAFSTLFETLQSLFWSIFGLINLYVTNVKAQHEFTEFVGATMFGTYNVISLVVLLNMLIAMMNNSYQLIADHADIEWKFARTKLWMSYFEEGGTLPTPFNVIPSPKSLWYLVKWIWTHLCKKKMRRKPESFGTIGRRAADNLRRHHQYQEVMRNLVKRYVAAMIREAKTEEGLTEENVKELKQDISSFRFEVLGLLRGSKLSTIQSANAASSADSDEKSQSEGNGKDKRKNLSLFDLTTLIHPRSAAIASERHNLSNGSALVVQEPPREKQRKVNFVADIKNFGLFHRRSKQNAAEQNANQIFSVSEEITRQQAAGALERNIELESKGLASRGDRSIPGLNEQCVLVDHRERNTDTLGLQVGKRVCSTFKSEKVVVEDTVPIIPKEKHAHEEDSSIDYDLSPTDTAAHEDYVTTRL
Briefly: calcium entry via TRPC4 opening agents – cell-based, HEK293 TRPC4/mu-opioid, Fluo-4 calcium, dose response (AID 434937). The class given is functional.

The next assay addresses T5, Coagulation factor XII (Homo sapiens, UniProt P00748).
T5 sequence (P00748 whole entry): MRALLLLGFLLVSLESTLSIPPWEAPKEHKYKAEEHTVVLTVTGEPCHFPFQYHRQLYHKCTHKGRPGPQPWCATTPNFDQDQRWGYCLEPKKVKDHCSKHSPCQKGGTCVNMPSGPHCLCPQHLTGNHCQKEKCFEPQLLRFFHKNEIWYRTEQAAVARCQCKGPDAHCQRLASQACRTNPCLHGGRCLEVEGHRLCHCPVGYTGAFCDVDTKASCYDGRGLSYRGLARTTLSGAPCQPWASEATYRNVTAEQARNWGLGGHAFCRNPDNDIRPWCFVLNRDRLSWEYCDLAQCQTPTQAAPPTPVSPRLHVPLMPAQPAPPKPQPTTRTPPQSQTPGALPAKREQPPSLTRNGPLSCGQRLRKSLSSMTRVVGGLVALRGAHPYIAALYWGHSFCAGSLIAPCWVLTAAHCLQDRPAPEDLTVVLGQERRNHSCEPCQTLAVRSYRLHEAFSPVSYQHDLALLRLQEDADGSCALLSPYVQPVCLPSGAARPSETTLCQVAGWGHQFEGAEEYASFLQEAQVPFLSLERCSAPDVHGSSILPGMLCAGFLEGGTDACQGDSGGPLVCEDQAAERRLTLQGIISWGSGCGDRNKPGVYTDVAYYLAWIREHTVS
The class given is functional.

For assay [10], the target named is G-protein coupled receptor 55 (Homo sapiens, UniProt Q9Y2T6). As to the kind of experiment: inhibition of LPI-stimulated GPR55 beta-arrestin translocation – imaging, U2OS, beta-arrestin-GFP, LPI agonist, primary screen (AID 2013).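 Further: antagonist potency measured as reduced agonist-driven arrestin aggregation.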 The class given is functional.
Assay [11] addresses T6, Fatty acid synthase (Homo sapiens, UniProt P49327). Briefly: inhibition of human FAS-TE enzyme activity – biochemical, endpoint fluorescence intensity, uHTS hits, dose response (AID 624327).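 Further: fluorescence from hydrolysis of an O-methyl fluorescein acyl ester substrate by the enzyme.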 The class given is functional.
Assay [12] has as its target T6, Fatty acid synthase. As to the kind of experiment: inhibition of human FAS-TE enzyme activity – biochemical, kinetic fluorescence intensity, dose response (AID 624326).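 Further: rate of fluorescence rise from hydrolysis of a fluorogenic O-methyl fluorescein ester substrate.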 The class given is functional.
The next assay relates to HEK293. As to the kind of experiment: cells. The class given is functional, cell-based. The conditions noted are these: Homo sapiens.
The target of assay [13] is T7, Nuclear receptor subfamily 0 group B member 1 (Homo sapiens, UniProt P51843).
T7 sequence (P51843 whole entry): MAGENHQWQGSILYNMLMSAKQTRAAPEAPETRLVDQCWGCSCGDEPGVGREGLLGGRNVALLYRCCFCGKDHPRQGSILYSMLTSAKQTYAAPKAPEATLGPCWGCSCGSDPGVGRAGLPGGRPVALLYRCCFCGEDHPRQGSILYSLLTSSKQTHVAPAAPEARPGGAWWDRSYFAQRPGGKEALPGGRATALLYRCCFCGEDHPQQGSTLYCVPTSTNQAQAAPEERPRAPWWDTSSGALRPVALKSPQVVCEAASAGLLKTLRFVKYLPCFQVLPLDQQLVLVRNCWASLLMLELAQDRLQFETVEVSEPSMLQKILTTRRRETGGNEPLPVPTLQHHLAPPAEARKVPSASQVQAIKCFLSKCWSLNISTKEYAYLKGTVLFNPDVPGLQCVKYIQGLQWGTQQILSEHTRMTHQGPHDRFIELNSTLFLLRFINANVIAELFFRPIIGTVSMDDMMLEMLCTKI
As to the kind of experiment: Luminescence-based cell-based high throughput dose response assay for inhibitors of the orphan nuclear receptor subfamily 0, group B, member 1 (DAX1; NR0B1). [Related pubchem assays (depositor defined):AID504766, AID504790]. Type of assay: functional.

A further assay has as its target Hexokinase HKDC1 (Homo sapiens, UniProt Q2TB90). As to the kind of experiment: SAR analysis of small molecule inhibitors of hexokinase domain containing I (HKDC1). [Related pubchem assays (depositor defined):AID493160, AID493190]. The class given is functional.
The next assay deals with Hexokinase-1 (Homo sapiens, UniProt P19367). As to the kind of experiment: SAR analysis of small molecule inhibitors of hexokinase domain containing I (HKDC1) in the hexokinase 1 selectivity assay. [Related pubchem assays (depositor defined):AID493160, AID493190]. Type of assay: functional.
The next assay concerns the target T8, Cytochrome P450 1A2 (Homo sapiens, UniProt P05177).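 Further: PubChem cytochrome P450 panel assay, CYP1A2 panel member.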
T8 sequence (P05177 whole entry): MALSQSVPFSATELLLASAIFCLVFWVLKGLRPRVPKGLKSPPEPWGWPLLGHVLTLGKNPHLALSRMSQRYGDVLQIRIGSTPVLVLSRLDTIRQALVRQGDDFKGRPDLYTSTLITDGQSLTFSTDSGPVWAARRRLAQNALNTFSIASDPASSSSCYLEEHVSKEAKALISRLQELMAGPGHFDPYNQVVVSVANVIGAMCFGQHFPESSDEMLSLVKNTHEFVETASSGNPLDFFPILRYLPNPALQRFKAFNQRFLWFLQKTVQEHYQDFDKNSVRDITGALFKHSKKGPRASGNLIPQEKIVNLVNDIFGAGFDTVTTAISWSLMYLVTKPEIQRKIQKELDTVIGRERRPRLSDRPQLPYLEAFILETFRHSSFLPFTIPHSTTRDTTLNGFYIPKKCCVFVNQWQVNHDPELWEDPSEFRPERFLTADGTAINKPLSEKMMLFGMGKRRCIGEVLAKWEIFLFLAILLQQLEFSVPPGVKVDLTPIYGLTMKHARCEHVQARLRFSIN

For a further assay, the target named is Cytochrome P450 3A4 (Homo sapiens, UniProt P08684).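 Further: CYP3A4 tested as one member of a cytochrome P450 panel screen.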
In another assay the target is Cytochrome P450 2D6 (Homo sapiens, UniProt P10635).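 Further: CYP2D6 member of a cytochrome P450 panel assay.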

T6 sequence (P49327 whole entry): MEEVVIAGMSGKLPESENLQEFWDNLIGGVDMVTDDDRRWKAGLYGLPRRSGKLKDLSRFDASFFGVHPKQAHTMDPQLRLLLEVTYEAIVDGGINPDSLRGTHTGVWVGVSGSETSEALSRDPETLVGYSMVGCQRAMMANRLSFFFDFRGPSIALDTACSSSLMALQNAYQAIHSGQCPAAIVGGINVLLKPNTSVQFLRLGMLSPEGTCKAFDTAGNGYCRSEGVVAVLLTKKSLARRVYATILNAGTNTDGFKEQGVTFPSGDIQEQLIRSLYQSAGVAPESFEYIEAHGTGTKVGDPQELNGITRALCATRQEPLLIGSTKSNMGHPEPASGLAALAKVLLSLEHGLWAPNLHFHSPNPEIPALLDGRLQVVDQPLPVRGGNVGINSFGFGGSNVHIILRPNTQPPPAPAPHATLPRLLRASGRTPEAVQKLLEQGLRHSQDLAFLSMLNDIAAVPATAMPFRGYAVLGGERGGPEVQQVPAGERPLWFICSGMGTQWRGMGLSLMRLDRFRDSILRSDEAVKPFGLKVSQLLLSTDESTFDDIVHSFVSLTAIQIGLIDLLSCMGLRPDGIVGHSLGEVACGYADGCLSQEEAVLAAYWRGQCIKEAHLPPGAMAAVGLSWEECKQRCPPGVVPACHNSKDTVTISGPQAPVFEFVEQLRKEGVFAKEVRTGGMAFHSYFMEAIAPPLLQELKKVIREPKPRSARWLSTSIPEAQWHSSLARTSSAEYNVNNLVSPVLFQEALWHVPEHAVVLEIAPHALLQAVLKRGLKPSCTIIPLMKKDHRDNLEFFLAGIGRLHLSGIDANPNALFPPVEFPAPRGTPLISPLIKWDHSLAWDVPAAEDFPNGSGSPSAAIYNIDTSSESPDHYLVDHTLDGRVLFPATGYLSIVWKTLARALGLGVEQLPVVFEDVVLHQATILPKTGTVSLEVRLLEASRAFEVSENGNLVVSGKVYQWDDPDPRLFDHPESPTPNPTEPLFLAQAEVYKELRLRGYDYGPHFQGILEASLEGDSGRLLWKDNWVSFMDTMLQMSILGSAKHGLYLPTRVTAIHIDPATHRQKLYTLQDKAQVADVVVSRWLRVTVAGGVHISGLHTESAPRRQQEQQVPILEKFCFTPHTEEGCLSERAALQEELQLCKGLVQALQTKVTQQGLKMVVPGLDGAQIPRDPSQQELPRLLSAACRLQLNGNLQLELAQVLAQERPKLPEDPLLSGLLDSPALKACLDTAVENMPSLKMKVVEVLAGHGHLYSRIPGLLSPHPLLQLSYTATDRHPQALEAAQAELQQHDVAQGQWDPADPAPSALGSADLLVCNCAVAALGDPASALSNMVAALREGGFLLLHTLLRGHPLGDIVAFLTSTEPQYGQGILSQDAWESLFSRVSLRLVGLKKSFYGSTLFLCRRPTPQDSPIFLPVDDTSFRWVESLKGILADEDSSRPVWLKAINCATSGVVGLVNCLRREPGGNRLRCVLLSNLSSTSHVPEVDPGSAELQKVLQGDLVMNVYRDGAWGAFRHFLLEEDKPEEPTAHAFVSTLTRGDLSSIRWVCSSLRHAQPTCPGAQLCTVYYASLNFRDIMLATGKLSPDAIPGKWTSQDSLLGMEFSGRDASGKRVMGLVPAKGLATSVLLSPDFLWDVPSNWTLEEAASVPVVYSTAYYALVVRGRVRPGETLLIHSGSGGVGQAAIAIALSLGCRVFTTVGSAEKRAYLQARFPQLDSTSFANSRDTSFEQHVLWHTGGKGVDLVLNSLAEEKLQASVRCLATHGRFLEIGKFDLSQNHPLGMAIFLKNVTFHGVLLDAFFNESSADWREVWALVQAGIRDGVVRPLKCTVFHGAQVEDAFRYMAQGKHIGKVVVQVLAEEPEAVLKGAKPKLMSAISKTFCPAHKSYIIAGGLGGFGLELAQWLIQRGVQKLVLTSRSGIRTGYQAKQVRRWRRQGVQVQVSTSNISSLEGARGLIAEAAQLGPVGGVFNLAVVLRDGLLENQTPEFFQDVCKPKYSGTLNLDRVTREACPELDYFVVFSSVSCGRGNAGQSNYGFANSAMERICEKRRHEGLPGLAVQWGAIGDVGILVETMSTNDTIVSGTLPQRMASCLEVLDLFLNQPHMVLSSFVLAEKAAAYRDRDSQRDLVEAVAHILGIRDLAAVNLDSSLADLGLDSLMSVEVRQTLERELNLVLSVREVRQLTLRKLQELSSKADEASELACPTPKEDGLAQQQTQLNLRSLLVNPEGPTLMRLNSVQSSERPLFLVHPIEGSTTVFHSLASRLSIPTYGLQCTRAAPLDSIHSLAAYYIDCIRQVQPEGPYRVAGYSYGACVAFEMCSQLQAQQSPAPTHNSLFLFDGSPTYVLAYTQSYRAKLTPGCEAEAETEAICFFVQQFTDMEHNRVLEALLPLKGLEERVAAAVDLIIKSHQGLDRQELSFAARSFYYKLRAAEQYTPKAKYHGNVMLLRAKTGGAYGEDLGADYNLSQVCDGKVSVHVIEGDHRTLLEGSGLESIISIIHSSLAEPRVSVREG
Voltage-gated inwardly rectifying potassium channel KCNH2, sequence (Q12809 whole entry): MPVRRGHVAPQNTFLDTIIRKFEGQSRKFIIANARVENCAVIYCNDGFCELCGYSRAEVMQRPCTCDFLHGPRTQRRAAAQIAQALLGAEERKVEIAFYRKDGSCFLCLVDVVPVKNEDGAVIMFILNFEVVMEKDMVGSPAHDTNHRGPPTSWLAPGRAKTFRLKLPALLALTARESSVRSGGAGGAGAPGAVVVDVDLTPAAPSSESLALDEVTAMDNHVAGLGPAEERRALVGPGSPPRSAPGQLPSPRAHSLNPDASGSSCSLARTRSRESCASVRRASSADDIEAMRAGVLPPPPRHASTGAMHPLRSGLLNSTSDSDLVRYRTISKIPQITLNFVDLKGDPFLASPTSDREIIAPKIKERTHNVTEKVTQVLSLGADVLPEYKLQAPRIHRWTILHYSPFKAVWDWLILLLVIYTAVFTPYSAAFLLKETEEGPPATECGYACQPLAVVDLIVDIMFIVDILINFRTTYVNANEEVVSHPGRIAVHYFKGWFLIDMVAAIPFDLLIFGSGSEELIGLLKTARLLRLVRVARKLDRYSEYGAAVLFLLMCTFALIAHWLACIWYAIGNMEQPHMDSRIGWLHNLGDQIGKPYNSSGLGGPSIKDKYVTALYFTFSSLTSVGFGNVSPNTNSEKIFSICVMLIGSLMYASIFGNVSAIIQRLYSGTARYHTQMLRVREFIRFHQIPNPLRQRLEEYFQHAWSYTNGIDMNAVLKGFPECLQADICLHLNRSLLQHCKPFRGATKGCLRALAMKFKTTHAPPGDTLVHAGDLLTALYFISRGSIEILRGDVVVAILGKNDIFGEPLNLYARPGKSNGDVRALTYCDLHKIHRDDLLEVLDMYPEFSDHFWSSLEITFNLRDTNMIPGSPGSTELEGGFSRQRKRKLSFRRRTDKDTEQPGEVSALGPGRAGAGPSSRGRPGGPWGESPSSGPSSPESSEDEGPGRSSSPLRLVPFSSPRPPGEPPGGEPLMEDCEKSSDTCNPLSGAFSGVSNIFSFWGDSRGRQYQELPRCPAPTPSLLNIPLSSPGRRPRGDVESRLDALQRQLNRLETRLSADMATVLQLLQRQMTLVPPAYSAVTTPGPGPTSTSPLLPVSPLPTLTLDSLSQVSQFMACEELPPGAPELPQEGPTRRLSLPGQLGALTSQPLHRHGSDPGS
DNA dC->dU-editing enzyme APOBEC-3G, sequence (Q9HC16 whole entry): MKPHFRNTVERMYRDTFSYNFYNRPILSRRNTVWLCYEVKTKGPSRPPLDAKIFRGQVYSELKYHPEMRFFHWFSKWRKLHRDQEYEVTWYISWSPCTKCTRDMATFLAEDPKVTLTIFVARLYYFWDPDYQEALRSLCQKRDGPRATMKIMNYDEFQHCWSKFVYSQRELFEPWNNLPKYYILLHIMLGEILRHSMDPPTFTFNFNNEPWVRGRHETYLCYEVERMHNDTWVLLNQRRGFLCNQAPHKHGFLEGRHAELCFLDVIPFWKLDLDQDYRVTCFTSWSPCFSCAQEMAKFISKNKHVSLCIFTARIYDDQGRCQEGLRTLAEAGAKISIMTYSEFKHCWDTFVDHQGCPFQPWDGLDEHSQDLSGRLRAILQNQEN

Usually AC50 stands for the concentration giving half of the maximal activity seen. In the case of `C[C@]12CC[C@@H](O)CC1CC[C@@H]1[C@@H]2CC[C@]2(C)C(=O)CC[C@@H]12` (some centres undefined), the AC50 in [1] is 25.1 µM (inconclusive).

For orientation: IC50 means the concentration that inhibits the measured activity by half. Regarding `CC(C)NC(=O)C(C)N1CCN(S(=O)(=O)c2ccc3ccccc3c2)CC1` (centres undefined), the IC50 in [2] was 3.38 µM (active); in assay [3] it was 5.92 µM (active); in [4], 88.9 µM (active); in assay [5] it was 20.5 µM (active); in [6], 3.72 µM (active); in [7] it was 27.6 µM (active).

In the case of `Cc1nc(C(=O)Nc2ccccc2)sc1C(=O)Nc1ccccc1`, the AC50 in the assay on HeLa was 58.6 µM (active).

As a reminder, the EC50 is the midpoint of the concentration-response curve. As to `CC1CCCCN1S(=O)(=O)c1ccc(C(=O)N(CCCN(C)C)c2nc3ccc(Br)cc3s2)cc1` (centres undefined), the EC50 was > 100 µM (inactive) in assay [8] and 4.73 µM (active) in assay [9].

`CN(C)S(=O)(=O)Oc1ccsc1C(=O)Nc1ccc(Cl)c(Cl)c1`: at Coagulation factor XII, the IC50 was > 50 µM (inactive).

Consider `Cc1cc(Cl)ccc1NC(=S)N(CCCN1CCOCC1)Cc1cccs1`, for which the IC50 in assay [10] was 6.24 µM (active).

`O=S(=O)(c1ccccc1)n1ccc(-c2cnc(-c3ccccc3)s2)n1`: the AC50 in the assay with HeLa was 101 µM (active). For the same molecule, the IC50 at Fatty acid synthase [11] is 7.41 µM (active); at Fatty acid synthase [12] it was 6.85 µM (active).

`CCC(c1nnnn1Cc1ccccc1)N(Cc1cc2cc(OC)ccc2[nH]c1=O)CC1CCCO1` (centres undefined): the EC50 in [8] is > 100 µM (inactive).

For `Cc1ccc2nc(N3CCOCC3)c(C=O)cc2c1`, the IC50 (with HEK293; in [13]) was > 67.5 µM (inactive) in each case.

`CN1CCN(CCNC(=O)c2cn(Cc3ccccc3F)nn2)CC1`: at Coagulation factor XII, the IC50 is > 50 µM (inactive).

As for `N#Cc1ccc(CSc2nnc(NC(=O)c3ccco3)s2)cc1`, the IC50 on Hexokinase HKDC1 and at Hexokinase-1 was > 80 µM (inactive) throughout.

`Cc1cccc(/C=C\c2nc3ccccc3c(=O)n2Cc2ccccc2)c1`: the IC50 at Hexokinase HKDC1 and on Hexokinase-1 was > 80 µM (inactive) in each case.

For `COc1ccc(S(=O)(=O)N2CCN(C(=O)c3ccc(O)nn3)CC2)cc1OC`, the IC50 (with HEK293; in [13]) was > 67.5 µM (inactive) throughout.

On to `COc1cccc(C(=O)NCCN2CCN(c3ccc(Cl)cc3)CC2)c1`, for which the AC50 on Cytochrome P450 1A2 is 12.6 µM (inconclusive); on Cytochrome P450 3A4 it was 15.8 µM (inconclusive); in assay [1], 1 µM (inconclusive); on Cytochrome P450 2D6, 31.6 µM (inconclusive).
